Reference: article PMC11766267 (International Journal of Molecular Sciences, 2025)

Legend:
HCT-116 = test: MTT cytotoxicity assay, HCT-116; format: cell-based; settings: Homo sapiens, 24 h treatment, mean ± SD of triplicate
Procedure: (§1) Subsequently, 100 µL of dimethyl sulfoxide was introduced to dissolve the insoluble formazan.

MDA-MB-231 = test: MTT cytotoxicity assay, MDA-MB-231; format: cell-based; settings: Homo sapiens, 24 h treatment, mean ± SD of triplicate
Procedure: as §1

HeLa = test: MTT cytotoxicity assay, HeLa; format: cell-based; settings: Homo sapiens, 24 h treatment, mean ± SD of triplicate
Procedure: as §1

MCF-7 [1] = test: MTT cytotoxicity assay, MCF-7; format: cell-based, human; settings: 24 h treatment, mean ± SD of triplicate
Procedure: as §1

[2] = MTT cytotoxicity assay, normal cell line WI-38; format: cell-based, human; settings: human, WI-38 cells (normal human lung fibroblasts), normal (non-cancer) cell line, 24 h treatment
Procedure: as §1

[3] = system: HCT-116, MDA-MB-231, HeLa, and MCF-7; test: MTT cytotoxicity assay, ranges stated over several cell lines; format: cell-based; settings: Homo sapiens, HCT-116, MDA-MB-231, HeLa, MCF-7; range; read-out: IC50 values, range over the cancer cell lines tested
Procedure: as §1

MCF-7 [4] = test: In vitro anti-estrogenic activity assay, MCF-7
MCF-7a = test: In vitro anti-estrogenic activity assay, MCF-7a
[5] = cell count relative to the control (17β-E2)

| SMILES | IC50 (HCT-116) [µM] | IC50 (MDA-MB-231) [µM] | IC50 (HeLa) [µM] | IC50 (MCF-7 [1]; Homo sapiens, MCF7, 24 h) [µM] | IC50 at 24 h [2] [µM] | IC50 [3] [µM] | IC50 (MCF-7 [1]) [µM] | Cell Proliferation MCF-7 % (MCF-7 [4]; [5]) [%] | Cell Proliferation MCF-7 Cell Count (MCF-7 [4]; mean ± SD of triplicate) | Cell Proliferation MCF-7a % (MCF-7a; [5]) [%] | Cell Proliferation MCF-7a Cell Count (MCF-7a; mean ± SD of triplicate) |
| --- | --- | --- | --- | --- | --- | --- | --- | --- | --- | --- | --- |
| CCOc1ccc(/C=C/C(=O)c2ccccc2)cc1 [Compound 4f, (E)-3-(4-Ethoxyphenyl)-1-phenylprop-2-en-1-one] | 57.6 ± 3.3 | 46.1 ± 2.4 | 49.6 ± 2.8 | 35.3 ± 2.1 | 64.7 ± 3.6 | 23.5 to 74.5 | – | – | – | – | – |
| O=C(/C=C/c1ccccc1OCc1ccccc1)c1ccccc1 [Compound 4g, (E)-3-(2-(Benzyloxy)phenyl)-1-phenylprop-2-en-1-one] | 54 ± 3 | 59.2 ± 3.5 | 36.5 ± 2.4 | 48.4 ± 2.6 | 27.8 ± 1.9 | 23.5 to 74.5 | – | – | – | – | – |
| O=C(/C=C/c1cccc(OCc2ccccc2)c1)c1ccccc1 [Compound 4h, (E)-3-(3-(Benzyloxy)phenyl)-1-phenylprop-2-en-1-one] | 46.8 ± 2.7 | 53.8 ± 3.3 | 25.6 ± 1.8 | 42.1 ± 2.4 | 83.4 ± 4.2 | 23.5 to 74.5 | – | – | – | – | – |
| O=C(/C=C/c1ccc(OCc2ccccc2)cc1)c1ccccc1 [Compound 4i, (E)-3-(4-(Benzyloxy)phenyl)-1-phenylprop-2-en-1-one] | > 100 | > 100 | > 100 | > 100 | > 100 | – | 85.5 ± 4.3 | – | – | – | – |
| COc1cccc(C(=O)/C=C/c2ccccc2)c1 [Compound 4j, (E)-1-(3-Methoxyphenyl)-3-phenylprop-2-en-1-one] | 24.6 ± 1.7 | 29.3 ± 1.9 | 34.9 ± 2.2 | 18.8 ± 1.5 | 78.2 ± 3.9 | – | – | – | – | – | – |
| COc1cccc(C(=O)/C=C/c2ccc(Cl)cc2)c1 [Compound 4k, (E)-3-(4-Chlorophenyl)-1-(3-methoxyphenyl)prop-2-en-1-one] | > 100 | > 100 | > 100 | > 100 | > 100 | – | – | – | – | – | – |
| COc1ccc(/C=C/C(=O)c2cccc(OC)c2)cc1 [Compound 4l, (E)-1-(3-Methoxyphenyl)-3-(4-methoxyphenyl) prop-2-en-1-one] | 84 ± 4.2 | 91.7 ± 4.5 | 88.8 ± 4.6 | 75.4 ± 3.8 | 16.2 ± 1.3 | 61.9 to 91.7 | – | – | – | – | – |
| COc1ccc(C(=O)/C=C/c2ccccc2)cc1 [Compound 4m, (E)-1-(4-Methoxyphenyl)-3-phenylprop-2-en-1-one] | 59.6 ± 3.5 | 45.9 ± 2.6 | 63.6 ± 3.7 | 33 ± 2 | 87.6 ± 4.6 | 23.5 to 74.5 | – | – | – | – | – |
| COc1ccc(C(=O)/C=C/c2ccc(Cl)cc2)cc1 [Compound 4n, (E)-3-(4-Chlorophenyl)-1-(4-methoxyphenyl)prop-2-en-1-one] | 66.1 ± 3.8 | 48.6 ± 2.8 | 74.5 ± 3.9 | 37 ± 2.3 | 61.5 ± 3.4 | 23.5 to 74.5 | – | – | – | – | – |
| COc1ccc(/C=C/C(=O)c2ccc(OC)cc2)cc1 [Compound 4o, (E)-1,3-bis(4-Methoxyphenyl)prop-2-en-1-one] | 89.2 ± 4.5 | 73.5 ± 4 | > 100 | 61.9 ± 3.4 | 24.2 ± 1.7 | 61.9 to 91.7 | – | – | – | – | – |
| COc1cccc(C(=O)/C=C/c2cccc(OCc3ccccc3)c2)c1 [Compound 4p, (E)-3-(3-(Benzyloxy)phenyl)-1-(3-methoxyphenyl)prop-2-en-1-one] | 39.8 ± 2.4 | 68.4 ± 3.7 | 45.2 ± 2.4 | 57.1 ± 3.2 | 92.1 ± 4.9 | 23.5 to 74.5 | – | – | – | – | – |
| COc1ccc(C(=O)/C=C/c2cccc(OCc3ccccc3)c2)cc1 [Compound 4r, (E)-3-(3-(Benzyloxy)phenyl)-1-(4-methoxyphenyl)prop-2-en-1-one] | 62.6 ± 3.7 | 51.8 ± 2.9 | 57 ± 3.2 | 39.3 ± 2.4 | > 100 | 23.5 to 74.5 | – | – | – | – | – |
| COc1ccc(C(=O)/C=C/c2ccc(OCc3ccccc3)cc2)cc1 [Compound 4s, (E)-3-(4-(Benzyloxy)phenyl)-1-(4-methoxyphenyl)prop-2-en-1-one] | 73.5 ± 3.9 | 82.4 ± 4.1 | 87 ± 4.3 | 64.2 ± 3.5 | 22.3 ± 1.6 | 61.9 to 91.7 | – | – | – | – | – |
| C[C@]12CC[C@@H]3c4ccc(O)cc4CC[C@H]3[C@@H]1CC[C@@H]2O [Compound 17β-E2, 17β estradiol, reference compound] | – | – | – | – | – | – | – | 100 | 18,524 ± 659 | 100 | 20,776 ± 600 |
